Assay results: the NIST ThermoML archive (doi:10.1016/j.tca.2015.03.020)

Conditions: Rate of evaporation

CCn1cc[n+](C)c1.COS(=O)(=O)[O-] [1-ethyl-3-methylimidazolium methylsulfate]
Liquid
Conditions	vapor or sublimation pressure [kPa]
408.15 K	6.75e-09
410.15 K	8.27e-09
413.15 K	1.12e-08
416.15 K	1.5e-08
420.15 K	2.21e-08
424.15 K	3.24e-08
428.15 K	4.7e-08
432.15 K	6.79e-08
436.15 K	9.72e-08
440.15 K	1.38e-07
444.15 K	1.96e-07
448.15 K	2.75e-07

CCCCCCCCCCCCCCCC [hexadecane]
Liquid
Conditions	vapor or sublimation pressure [kPa]
284.15 K	6.01e-05
289.15 K	0.000102
294.15 K	0.000168
299.15 K	0.000274
304.15 K	0.00044
309.15 K	0.000696
314.15 K	0.00108
319.15 K	0.00166
324.15 K	0.00252
329.15 K	0.00377
334.15 K	0.00558
339.15 K	0.00816
344.15 K	0.0118
349.15 K	0.0169
354.15 K	0.0239
359.15 K	0.0335
364.15 K	0.0465
369.15 K	0.0641
374.15 K	0.0875
379.15 K	0.119
384.15 K	0.159
389.15 K	0.212
394.15 K	0.281
399.15 K	0.369
404.15 K	0.482
409.15 K	0.626
414.15 K	0.806
419.15 K	1.03
424.15 K	1.32
429.15 K	1.67
434.15 K	2.1
439.15 K	2.63
444.15 K	3.28
449.15 K	4.07
454.15 K	5.02
459.15 K	6.18
464.15 K	7.56
469.15 K	9.21
474.15 K	11.2
479.15 K	13.5
484.15 K	16.3
489.15 K	19.5
494.15 K	23.3
499.15 K	27.7
504.15 K	32.9
509.15 K	38.9

CCn1cc[n+](C)c1.O=S(=O)([N-]S(=O)(=O)C(F)(F)F)C(F)(F)F
Liquid
Conditions	vapor or sublimation pressure [kPa]
363.13 K	1.75e-09
368.13 K	2.95e-09
373.13 K	4.91e-09
378.13 K	8.06e-09
383.13 K	1.31e-08
388.13 K	2.09e-08
393.13 K	3.31e-08
398.13 K	5.18e-08
403.13 K	8.01e-08
408.13 K	1.23e-07
413.13 K	1.86e-07
418.13 K	2.78e-07
423.13 K	4.14e-07
428.13 K	6.09e-07
433.13 K	8.88e-07
438.13 K	1.28e-06
443.13 K	1.84e-06
448.13 K	2.62e-06
453.13 K	3.7e-06
458.13 K	5.18e-06
463.13 K	7.2e-06
468.13 K	9.95e-06
473.13 K	1.36e-05
538.13 K	0.00129
543.13 K	0.00168
548.13 K	0.00216
553.13 K	0.00277
558.13 K	0.00355
563.13 K	0.00451
568.13 K	0.00572
573.13 K	0.00722
578.13 K	0.00907
583.13 K	0.0114
588.13 K	0.0142
593.13 K	0.0176
598.13 K	0.0218
603.13 K	0.0269
608.13 K	0.0331
613.13 K	0.0405
618.13 K	0.0495
623.13 K	0.0602
628.13 K	0.0731
633.13 K	0.0885
638.13 K	0.107
643.13 K	0.128
648.13 K	0.154
653.13 K	0.184
658.13 K	0.22
663.13 K	0.261
668.13 K	0.31
673.13 K	0.367
678.13 K	0.433
683.13 K	0.51
688.13 K	0.599
693.13 K	0.703
698.13 K	0.822
703.13 K	0.959
708.13 K	1.12
713.13 K	1.3
718.13 K	1.5
723.13 K	1.74

CCCCCCCCCCCC [dodecane]
Liquid
Conditions	vapor or sublimation pressure [kPa]
284.15 K	0.00421
289.15 K	0.00646
294.15 K	0.00978
299.15 K	0.0146
304.15 K	0.0215
309.15 K	0.0312
314.15 K	0.0449
319.15 K	0.0638
324.15 K	0.0897
329.15 K	0.125
334.15 K	0.172
339.15 K	0.234
344.15 K	0.317
349.15 K	0.425
354.15 K	0.565
359.15 K	0.746
364.15 K	0.976
369.15 K	1.27
374.15 K	1.64
379.15 K	2.1
384.15 K	2.67
389.15 K	3.38
394.15 K	4.25
399.15 K	5.32
404.15 K	6.62
409.15 K	8.19
414.15 K	10.1
419.15 K	12.4
424.15 K	15.1
429.15 K	18.3
434.15 K	22.1
439.15 K	26.6
444.15 K	31.8
449.15 K	38
454.15 K	45.1
459.15 K	53.4
464.15 K	63
469.15 K	74.1
474.15 K	86.8
479.15 K	101
484.15 K	118
489.15 K	137
494.15 K	158
499.15 K	183
504.15 K	210
509.15 K	241

c1ccc2cc3ccccc3cc2c1 [anthracene]
Crystal
Conditions	vapor or sublimation pressure [kPa]
284.15 K	1.79e-07
289.15 K	3.52e-07
294.15 K	6.77e-07
299.15 K	1.27e-06
304.15 K	2.35e-06
309.15 K	4.25e-06
314.15 K	7.54e-06
319.15 K	1.31e-05
324.15 K	2.25e-05
329.15 K	3.79e-05
334.15 K	6.29e-05
339.15 K	0.000103
344.15 K	0.000166
349.15 K	0.000263
354.15 K	0.000413
359.15 K	0.00064
364.15 K	0.000979
369.15 K	0.00148
374.15 K	0.00222
379.15 K	0.00328
384.15 K	0.00481
389.15 K	0.00698
394.15 K	0.01
399.15 K	0.0143
404.15 K	0.0202
409.15 K	0.0283
414.15 K	0.0393
419.15 K	0.0541
424.15 K	0.0741
429.15 K	0.101
434.15 K	0.136
439.15 K	0.182
444.15 K	0.242
449.15 K	0.319
454.15 K	0.42
459.15 K	0.548
464.15 K	0.712
469.15 K	0.919
474.15 K	1.18
479.15 K	1.51
484.15 K	1.92
489.15 K	2.42
494.15 K	3.05
499.15 K	3.83
504.15 K	4.77
509.15 K	5.93
